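Test compounds were applied to cells in 96-well plates for 48 hours at 5 doses. TGI: concentration producing complete growth inhibition.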
Key:
Assay in all cases: growth of human tumour cells (NCI), 48 h
786-0 renal = tested on: 786-0 renal
A498 renal = tested on: A498 renal
ACHN renal = tested on: ACHN renal
CCRF-CEM leukemia = tested on: CCRF-CEM leukemia
COLO 205 colon = tested on: COLO 205 colon
DU-145 prostate = tested on: DU-145 prostate
EKVX NSCLC = tested on: EKVX NSCLC
HCC-2998 colon = tested on: HCC-2998 colon
HCT-116 colon = tested on: HCT-116 colon
HCT-15 colon = tested on: HCT-15 colon
HL-60(TB) leukemia = tested on: HL-60(TB) leukemia
HOP-62 NSCLC = tested on: HOP-62 NSCLC
HT29 colon = tested on: HT29 colon
IGROV1 ovarian = tested on: IGROV1 ovarian
LOX IMVI melanoma = tested on: LOX IMVI melanoma
MALME-3M melanoma = tested on: MALME-3M melanoma
MCF7 breast = tested on: MCF7 breast
MDA-MB-231 breast = tested on: MDA-MB-231 breast
MDA-MB-435 = tested on: MDA-MB-435
MDA-N = tested on: MDA-N
MOLT-4 leukemia = tested on: MOLT-4 leukemia
NCI-H23 lung = tested on: NCI-H23 lung
NCI-H460 lung = tested on: NCI-H460 lung
NCI/ADR-RES ovarian = tested on: NCI/ADR-RES ovarian
OVCAR-3 ovarian = tested on: OVCAR-3 ovarian
OVCAR-4 ovarian = tested on: OVCAR-4 ovarian
OVCAR-5 ovarian = tested on: OVCAR-5 ovarian
OVCAR-8 ovarian = tested on: OVCAR-8 ovarian
PC-3 prostate = tested on: PC-3 prostate
RPMI-8226 leukemia = tested on: RPMI-8226 leukemia
SF-268 CNS = tested on: SF-268 CNS
SF-295 CNS = tested on: SF-295 CNS
SF-539 CNS = tested on: SF-539 CNS
SK-MEL-2 melanoma = tested on: SK-MEL-2 melanoma
SK-MEL-28 melanoma = tested on: SK-MEL-28 melanoma
SK-OV-3 ovarian = tested on: SK-OV-3 ovarian
SN12C renal = tested on: SN12C renal
SNB-19 CNS = tested on: SNB-19 CNS
SNB-75 CNS = tested on: SNB-75 CNS
SR leukemia = tested on: SR leukemia
SW-620 colon = tested on: SW-620 colon
T-47D breast = tested on: T-47D breast
TK-10 renal = tested on: TK-10 renal
U251 CNS = tested on: U251 CNS
UACC-257 melanoma = tested on: UACC-257 melanoma
UACC-62 melanoma = tested on: UACC-62 melanoma
UO-31 renal = tested on: UO-31 renal
A549 NSCLC = tested on: A549 NSCLC
CAKI-1 renal = tested on: CAKI-1 renal
HOP-92 NSCLC = tested on: HOP-92 NSCLC
K-562 leukemia = tested on: K-562 leukemia
KM12 colon = tested on: KM12 colon
M14 melanoma = tested on: M14 melanoma
RXF 393 renal = tested on: RXF 393 renal
SK-MEL-5 melanoma = tested on: SK-MEL-5 melanoma
BT-549 breast = tested on: BT-549 breast
NCI-H226 lung = tested on: NCI-H226 lung
NCI-H522 lung = tested on: NCI-H522 lung

CCCCN(CCCC)CC(O)c1cc(-c2ccc(Cl)c(Cl)c2)nc2c(Cl)cc(Cl)cc12 (configuration not stated)
TGI (786-0 renal): > 100 µM
TGI (A498 renal): > 100 µM
TGI (ACHN renal): > 100 µM
TGI (CCRF-CEM leukemia): > 100 µM
TGI (COLO 205 colon): > 100 µM
TGI (DU-145 prostate): > 100 µM
TGI (EKVX NSCLC): > 100 µM
TGI (HCC-2998 colon): > 100 µM
TGI (HCT-116 colon): > 100 µM
TGI (HCT-15 colon): > 100 µM
TGI (HL-60(TB) leukemia): > 100 µM
TGI (HOP-62 NSCLC): > 100 µM
TGI (HT29 colon): > 100 µM
TGI (IGROV1 ovarian): > 100 µM
TGI (LOX IMVI melanoma): > 100 µM
TGI (MALME-3M melanoma): > 100 µM
TGI (MCF7 breast): > 100 µM
TGI (MDA-MB-231 breast): > 100 µM
TGI (MDA-MB-435): > 100 µM
TGI (MDA-N): > 100 µM
TGI (MOLT-4 leukemia): > 100 µM
TGI (NCI-H23 lung): > 100 µM
TGI (NCI-H460 lung): > 100 µM
TGI (NCI/ADR-RES ovarian): > 100 µM
TGI (OVCAR-3 ovarian): > 100 µM
TGI (OVCAR-4 ovarian): > 100 µM
TGI (OVCAR-5 ovarian): > 100 µM
TGI (OVCAR-8 ovarian): > 100 µM
TGI (PC-3 prostate): > 100 µM
TGI (RPMI-8226 leukemia): > 100 µM
TGI (SF-268 CNS): > 100 µM
TGI (SF-295 CNS): > 100 µM
TGI (SF-539 CNS): > 100 µM
TGI (SK-MEL-2 melanoma): > 100 µM
TGI (SK-MEL-28 melanoma): > 100 µM
TGI (SK-OV-3 ovarian): > 100 µM
TGI (SN12C renal): > 100 µM
TGI (SNB-19 CNS): > 100 µM
TGI (SNB-75 CNS): > 100 µM
TGI (SR leukemia): > 100 µM
TGI (SW-620 colon): 39.1 µM
TGI (T-47D breast): > 100 µM
TGI (TK-10 renal): > 100 µM
TGI (U251 CNS): > 100 µM
TGI (UACC-257 melanoma): > 100 µM
TGI (UACC-62 melanoma): > 100 µM
TGI (UO-31 renal): > 100 µM

C#CCCCC(=C)C[C@@H]1OC(=O)[C@H](C)[C@@H]1O
TGI (786-0 renal): > 100 µM
TGI (A498 renal): > 100 µM
TGI (A549 NSCLC): > 100 µM
TGI (ACHN renal): > 100 µM
TGI (CAKI-1 renal): > 100 µM
TGI (CCRF-CEM leukemia): > 100 µM
TGI (COLO 205 colon): > 100 µM
TGI (DU-145 prostate): > 100 µM
TGI (EKVX NSCLC): > 100 µM
TGI (HCC-2998 colon): > 100 µM
TGI (HCT-116 colon): > 100 µM
TGI (HCT-15 colon): > 100 µM
TGI (HL-60(TB) leukemia): > 100 µM
TGI (HOP-62 NSCLC): > 100 µM
TGI (HOP-92 NSCLC): > 100 µM
TGI (K-562 leukemia): > 100 µM
TGI (KM12 colon): > 100 µM
TGI (LOX IMVI melanoma): > 100 µM
TGI (M14 melanoma): > 100 µM
TGI (MCF7 breast): > 100 µM
TGI (MDA-MB-435): > 100 µM
TGI (MDA-N): > 100 µM
TGI (MOLT-4 leukemia): > 100 µM
TGI (NCI-H23 lung): > 100 µM
TGI (NCI-H460 lung): > 100 µM
TGI (NCI/ADR-RES ovarian): > 100 µM
TGI (OVCAR-3 ovarian): > 100 µM
TGI (OVCAR-4 ovarian): > 100 µM
TGI (OVCAR-5 ovarian): > 100 µM
TGI (PC-3 prostate): > 100 µM
TGI (RPMI-8226 leukemia): > 100 µM
TGI (RXF 393 renal): > 100 µM
TGI (SF-295 CNS): > 100 µM
TGI (SK-MEL-2 melanoma): > 100 µM
TGI (SK-MEL-28 melanoma): > 100 µM
TGI (SK-MEL-5 melanoma): > 100 µM
TGI (SK-OV-3 ovarian): > 100 µM
TGI (SN12C renal): > 100 µM
TGI (SNB-19 CNS): > 100 µM
TGI (SNB-75 CNS): > 100 µM
TGI (SW-620 colon): > 100 µM
TGI (T-47D breast): > 100 µM
TGI (U251 CNS): > 100 µM
TGI (UO-31 renal): > 100 µM

CC(C)=CCC/C(C)=C/CCC(C(=O)COCc1ccccc1)P1(=O)OC(C)(C)CN1C(C)(C)C (configuration not stated)
TGI (786-0 renal): > 100 µM
TGI (A549 NSCLC): > 100 µM
TGI (ACHN renal): > 100 µM
TGI (BT-549 breast): > 100 µM
TGI (CAKI-1 renal): > 100 µM
TGI (CCRF-CEM leukemia): 93.7 µM
TGI (COLO 205 colon): > 100 µM
TGI (DU-145 prostate): > 100 µM
TGI (EKVX NSCLC): > 100 µM
TGI (HCT-116 colon): > 100 µM
TGI (HCT-15 colon): > 100 µM
TGI (HOP-62 NSCLC): > 100 µM
TGI (HT29 colon): > 100 µM
TGI (IGROV1 ovarian): > 100 µM
TGI (K-562 leukemia): 73.9 µM
TGI (KM12 colon): > 100 µM
TGI (LOX IMVI melanoma): > 100 µM
TGI (M14 melanoma): > 100 µM
TGI (MCF7 breast): > 100 µM
TGI (MDA-MB-231 breast): > 100 µM
TGI (MDA-MB-435): > 100 µM
TGI (MDA-N): > 100 µM
TGI (MOLT-4 leukemia): 38.6 µM
TGI (NCI-H226 lung): > 100 µM
TGI (NCI-H23 lung): > 100 µM
TGI (NCI-H460 lung): > 100 µM
TGI (NCI-H522 lung): > 100 µM
TGI (NCI/ADR-RES ovarian): > 100 µM
TGI (OVCAR-3 ovarian): > 100 µM
TGI (OVCAR-4 ovarian): 81.2 µM
TGI (OVCAR-5 ovarian): > 100 µM
TGI (PC-3 prostate): > 100 µM
TGI (RXF 393 renal): > 100 µM
TGI (SF-268 CNS): > 100 µM
TGI (SF-295 CNS): > 100 µM
TGI (SF-539 CNS): > 100 µM
TGI (SK-MEL-2 melanoma): > 100 µM
TGI (SK-MEL-28 melanoma): > 100 µM
TGI (SK-MEL-5 melanoma): > 100 µM
TGI (SK-OV-3 ovarian): > 100 µM
TGI (SN12C renal): > 100 µM
TGI (SNB-19 CNS): > 100 µM
TGI (SNB-75 CNS): > 100 µM
TGI (SR leukemia): 46.5 µM
TGI (SW-620 colon): > 100 µM
TGI (T-47D breast): > 100 µM
TGI (TK-10 renal): > 100 µM
TGI (U251 CNS): > 100 µM
TGI (UACC-257 melanoma): > 100 µM
TGI (UACC-62 melanoma): > 100 µM
TGI (UO-31 renal): > 100 µM

Source: PubChem BioAssay (NCI)
